# Laboratory results as given in US20140314867A1, “VITAMIN K2 MICROSPHERES” (Medical and Pharmaceutical Industry Technology and …, priority 2013, published 2014).
# Experiments:
# Assay type in all cases: cell-based, human
# MG-63 cells [1] = assay: Alkaline phosphatase (ALP) activity test in co-cultured MG-63 cells
# Procedure: 0.0001 g, 0.0005 g, 0.005 g, and 0.05 g of VK2 was fine weighed and sterilized by UV light in a sterile hood overnight, then added into 50 ml centrifuge tubes. 50 ml of H-DMEM containing 10% FBS was then added to prepare cell culture medium with different VK2 concentrations: 0 mg/mL, 0.002 mg/mL, 0.01 mg/mL, 0.1 mg/mL, and 1 mg/mL.
# H-DMEM containing 10% FBS was used to adjust the concentration of MG-63 cell solution to 1×10^4 cells/ml. 1 ml/well of cell solution was seeded to a 24-well plate and incubated in an incubator for 1 day to make cells adhere. Then, the culture medium was removed, 1 ml/well of cell culture medium with different VK2 concentration were added respectively and incubated for 1, 3, and 7 days. Cell viability analysis (MTT) and alkaline phosphatase activity assay (ALP) were conducted. Cell morphology was observed by an inverted microscope and recorded in photographs. […]
# The measurement of ALP is described below. After being cultured for 1 day, the cell culture medium was removed from the 24-well cell culture plate. Then, the 24-well cell culture plate was washed twice by PBS. After the PBS was removed, 200 μl/well of ALP extraction reagent pNPP65 (p-Nitrophenylphosphate) was added to the 24-well culture plate and reacted in an incubator (37° C., 5% CO2) in the dark for 30 minutes. Then, 50 μl of 1N sodium hydroxide was added to stop the reaction. 250 μl/well of supernatant was suctioned to a 96-well plate to detect the OD value at 405 nm by an ELISA reader. Activity of alkaline phosphatase (ALP) can be calculated by the formula below: […]
# In this formula, A is the absorbance of a sample at 405 nm; Vt is the total reaction volume, 0.25 ml; Vs is the sample volume, 0.05 ml; t is the reaction time after adding pNPP65 (p-Nitrophenylphosphate), 30 minutes; c is mmol extinction coefficient of pNPP65 (p-Nitrophenylphosphate), 18.6 mM^−1 cm^−1; 1 is the optical path of the cuvette, 1 cm; 1000 is to convert the U/ml to U/l.
# MG-63 cells [2] = assay: as above; settings: 0.02 mg/mL
# MG-63 cells [3] = assay: Cell viability analysis (MTT), cell number of co-cultured MG-63 cells
# Procedure: 0.0001 g, 0.0005 g, 0.005 g, and 0.05 g of VK2 was fine weighed and sterilized by UV light in a sterile hood overnight, then added into 50 ml centrifuge tubes. 50 ml of H-DMEM containing 10% FBS was then added to prepare cell culture medium with different VK2 concentrations: 0 mg/mL, 0.002 mg/mL, 0.01 mg/mL, 0.1 mg/mL, and 1 mg/mL. H-DMEM containing 10% FBS was used to adjust the concentration of MG-63 cell solution to 1×10^4 cells/ml. 1 ml/well of cell solution was seeded to a 24-well plate and incubated in an incubator for 1 day to make cells adhere. Then, the culture medium was removed, 1 ml/well of cell culture medium with different VK2 concentration were added respectively and incubated for 1, 3, and 7 days. Cell viability analysis (MTT) and alkaline phosphatase activity assay (ALP) were conducted. Cell morphology was observed by an inverted microscope and recorded in photographs. 0.01 g of 0%, 0.01%, 0.1%, and 1.0% VK2MS was fine weighed and sterilized by UV light in a sterile hood overnight, then added into 50 ml centrifuge tubes. 50 ml of H-DMEM containing 10% FBS was then added to prepare cell culture medium with different VK2 concentrations. H-DMEM containing 10% FBS was used to adjust the concentration of MG-63 cell solution to 1×10^4 cells/ml. 1 ml/well of cell solution was seeded to a 24-well plate and incubated in an incubator for 1 day to make the cells adhere. Then, the culture medium was removed, 1 ml/well of cell culture medium with different VK2 concentration were added respectively and incubated for 1, 3, and 7 days. In addition, the cell culture medium without microspheres (MS) was added 1 ml/well and incubated for 1, 3, and 7 days as control groups. Subsequently, cell viability analyse (MTT) and alkaline phosphatase activity assays (ALP) were conducted. Cell morphology was observed by an inverted microscope and recorded by photographs. First, MTT was prepared as a 5 mg/mL reaction solution by PBS, then filtered by a 0.22 μm filter. 10% MTT reagent was prepared by H-DMEM, and then stored in the dark. After being cultured for 1 day, the cell culture medium was removed from the 24-well cell culture plate. The 24-well cell culture plate was washed twice by PBS. After the PBS was removed, 1 ml/well of 10% MTT reagent was added to the culture plate and reacted in an incubator (37° C., 5% CO2) in the dark for 4-5 hours. Purple crystal particles were produced at the bottom of culture plate after the reaction. The reactive solution was removed and 350 μl/well of DMSO solution was added. After being mixed, […] of dissolved solution was suctioned to a 96-well plate and the absorbance at 570 nm was detected by an ELISA reader. The reference wavelength was set as 650 nm. A cell standard curve can be made to reckon the cell number. The cell solution was adjusted to have a concentration of 5000, 10000, 25000, 50000, 75000, and 100000 cells/ml by H-DMEM containing 10% FBS then seeded into a 24-well plate, respectively. After 1 day, after the cells were adhered, an MTT cell viability analysis was conducted. Absorbance and cell numbers were used to make a standard curve, such that the cell number could be reckoned from the absorbance. A growth curve of MG-63 cells was made first, and then the cell growth rate could be obtained by dividing the cell viability by that of the control group which was detected by the MTT assay. The result shown in FIG. 9A can be obtained by converting the data from ELISA to a cell number according to the cell growth curve. In FIG. 9A, it is observed that the cell number of MG-63 co-cultured with VK2 is apparently lower than that of the control group. Moreover, the effect of cell growth inhibition becomes obvious with the increasing concentration of VK2. […]
substance,measurement,setting,value
vitamin K2 [VK2],ALP value compared with control group,MG-63 cells [1]; 0.002 mg/mL of VK2,higher than that of the control group
same,ALP activity of a single cell,"MG-63 cells [1]; 0.002 mg/mL of VK2, day 1",96.7±1.1 U/L-30 min-10^4 cells
same,ALP value,"MG-63 cells [1]; 0.002 mg/mL of VK2, day 1",399.9±3.3 U/L-30 min
same,ALP activity of a single cell,"MG-63 cells [1]; 0.002 mg/mL of VK2, day 3",62.4±0.9 U/L-30 min-10^4 cells
same,ALP value,"MG-63 cells [1]; 0.002 mg/mL of VK2, day 3",410.7±2.7 U/L-30 min
same,ALP value,"MG-63 cells [1]; 0.002 mg/mL of VK2, day 7",377.4±1.6 U/L-30 min
same,ALP activity of a single cell,"MG-63 cells [1]; 0.01 mg/mL of VK2, day 1",46.4±0.4 U/L-30 min-10^4 cells
same,ALP value,"MG-63 cells [1]; 0.01 mg/mL of VK2, day 1",111.0±0.7 U/L-30 min
same,ALP activity of a single cell,"MG-63 cells [1]; 0.01 mg/mL of VK2, day 3",19.8±0.1 U/L-30 min-10^4 cells
same,ALP activity of a single cell,"MG-63 cells [1]; 0.01 mg/mL of VK2, day 7",8.2±0.0 U/L-30 min-10^4 cells
same,ALP value,"MG-63 cells [1]; 0.1 mg/mL of VK2, day 3",112.2±0.3 U/L-30 min
same,ALP value,"MG-63 cells [1]; 0.1 mg/mL of VK2, day 7",100.6±0.0 U/L-30 min
same,ALP activity of a single cell,"MG-63 cells [1]; 1.0 mg/mL of VK2, day 7",70.4±1.7 U/L-30 min-10^4 cells
same,effect on ALP activity of cells,MG-63 cells [2],enhance the ALP activity of cells
same,cell number,"MG-63 cells [3]; 0.002 mg/mL of VK2, day 1",4.1±0.1 ×10^4 cells
same,cell number,"MG-63 cells [3]; 0.002 mg/mL of VK2, day 3",6.6±0.1 ×10^4 cells
same,cell number,"MG-63 cells [3]; 0.002 mg/mL of VK2, day 7",14.7±0.1 ×10^4 cells
same,cell number,"MG-63 cells [3]; 1 mg/mL of VK2, day 1",2.0±0.0 ×10^4 cells
same,cell number,"MG-63 cells [3]; 1 mg/mL of VK2, day 3",5.0±0.1 ×10^4 cells
same,cell number,"MG-63 cells [3]; 1 mg/mL of VK2, day 7",2.1±0.1 ×10^4 cells
same,effect on cell proliferation,"MG-63 cells [3]; MG-63 co-cultured with VK2, 1, 3, 7 days",inhibits cell proliferation
